Experimental data: US6489269B1, “Plant-activating agent” (Kao Corporation, priority 1998, dated 2002)

Tested on: Chlorella cells
Test: Test of reproductive ability using chlorella cells
Format: cell-based
Conditions: number of chlorella cells after 10 days, relative value, no-treated LS medium = 100; start 1.00x10^5 cells per ml
Description: <Test of Reproductive Ability Using Chlorella Cells> Chlorella cells, which are green cells of […], were cultured with vibration in an inorganic-salt medium. Raw materials shown in Table 4 were added thereto, and then reproductive ability of chlorella cells (ability for increasing the number of the cells) was evaluated by comparison with the result obtained from a medium which was no-treated (i.e., only original nutrients of the inorganic salt medium). For the respective compositions, the test was repeated 3 times. The concentration of the cells was set to 1.00×10^5 cells (per ml) at the start of the test. […] As the inorganic salt medium, a Linsmaier-Skoog (LS) medium was used.

SMILES | proliferating ability of cells
CCCCCCCCCCCCCCCCCCCCCCO [Invention product 4-9, Docosanol] | 130
CCCCCCCCCCCCCCCCCCCCCCCCO [Invention product 4-10, Tetracosanol] | 122
CCCCCCCCO [Comparative product 4-7, Octanol, reference compound] | 95
CCCCCCCCCCCCCCCCCCCCO [Invention product 4-8, Eicosanol] | 152
CCCCCCCCCCO [Comparative product 4-4, Decyl alcohol, reference compound] | 91
CCCCCCCCCCCCCCCCO [Invention product 4-4, Cetyl alcohol] | 148
CCCO [Comparative product 4-1, Propanol, reference compound] | 96
CCCCCCCCCCCCCCCCO [Invention product 4-15, Cetyl alcohol] | 142
CCCCCCCCCCCCCCCCCCCCO [Invention product 4-17, Eicosanol] | 146
CCCCCCCCCCCCCCO [Invention product 4-2, Myristyl alcohol] | 128
CCCCCCCCCCCCCCCCCCO [Invention product 4-6, Stearyl alcohol] | 168
CCCCCCCCCCCCCCCCCCO [Invention product 4-16, Stearyl alcohol] | 156
CCCCCCCC/C=C\CCCCCCCCO [Invention product 4-7, Oleyl alcohol] | 154
CCCCCCO [Comparative product 4-2, Hexanol, reference compound] | 93
CCCCCCCCCCCCO [Invention product 4-1, Lauryl alcohol] | 115
